# In ChEMBL document CHEMBL5303573, “Mapping human microbiome drug metabolism by gut bacteria and their genes” (Nature, 2019):
# How the values were obtained:
# [1] = The drug is tested on Ruminococcus gnavus strain: ATCC29149 for biotransformation. The drug concentrations were measured before and after a 12-h incubation by liquid-chromatography-coupled mass spectrometry (LC–MS); conditions: mediterraneibacter gnavus, 2 µM
# [2] = The drug is tested on Subdoligranulum variabile strain: DSM15176 for biotransformation. The drug concentrations were measured before and after a 12-h incubation by liquid-chromatography-coupled mass spectrometry (LC–MS); conditions: 2 µM
# [3] = The drug is tested on Bifidobacterium ruminantium strain: fecal isolate for biotransformation. The drug concentrations were measured before and after a 12-h incubation by liquid-chromatography-coupled mass spectrometry (LC–MS); conditions: 2 µM
# [4] = The drug is tested on Bacteroides uniformis strain: ATCC8492 for biotransformation. The drug concentrations were measured before and after a 12-h incubation by liquid-chromatography-coupled mass spectrometry (LC–MS); conditions: 2 µM
# [5] = The drug is tested on Dorea formicigenerans strain: ATCC27755 for biotransformation. The drug concentrations were measured before and after a 12-h incubation by liquid-chromatography-coupled mass spectrometry (LC–MS); conditions: 2 µM
# [6] = The drug is tested on Bacteroides dorei strain: DSM17855 for biotransformation. The drug concentrations were measured before and after a 12-h incubation by liquid-chromatography-coupled mass spectrometry (LC–MS); conditions: phocaeicola dorei, 2 µM
# [7] = The drug is tested on Providencia rettgeri strain: DSM1131 for biotransformation. The drug concentrations were measured before and after a 12-h incubation by liquid-chromatography-coupled mass spectrometry (LC–MS); type: ADME; parameters: dose 2 uM, timepoint 0 vs 12 hours; conditions: 2 µM
# [8] = The drug is tested on Eggerthella lenta strain: ATCC25559 for biotransformation. The drug concentrations were measured before and after a 12-h incubation by liquid-chromatography-coupled mass spectrometry (LC–MS); conditions: 2 µM
# [9] = The drug is tested on Clostridium scindens strain: ATCC35704 for biotransformation. The drug concentrations were measured before and after a 12-h incubation by liquid-chromatography-coupled mass spectrometry (LC–MS); conditions: 2 µM
# [10] = The drug is tested on Enterobacter cancerogenus strain: ATCC35316 for biotransformation. The drug concentrations were measured before and after a 12-h incubation by liquid-chromatography-coupled mass spectrometry (LC–MS); conditions: 2 µM
# [11] = The drug is tested on Anaerotruncus colihominis strain: DSM17241 for biotransformation. The drug concentrations were measured before and after a 12-h incubation by liquid-chromatography-coupled mass spectrometry (LC–MS); conditions: 2 µM
# [12] = The drug is tested on Clostridium asparagiforme strain: DSM15981 for biotransformation. The drug concentrations were measured before and after a 12-h incubation by liquid-chromatography-coupled mass spectrometry (LC–MS); type: ADME; parameters: dose 2 uM, timepoint 0 vs 12 hours; conditions: enterocloster asparagiformis, 2 µM
# [13] = The drug is tested on Bacteroides pectinophilus strain: ATCC43243 for biotransformation. The drug concentrations were measured before and after a 12-h incubation by liquid-chromatography-coupled mass spectrometry (LC–MS); conditions: 2 µM
# [14] = bifidobacterium adolescentis, 12 h, 2 µM
# Description: The drug is tested on Bifidobacterium adolescentis strain: ATCC 15703 for biotransformation. The drug concentrations were measured before and after a 12-h incubation by liquid-chromatography-coupled mass spectrometry (LC–MS)
# [15] = bacteroides eggerthii, 12 h, 2 µM
# Description: The drug is tested on Bacteroides eggerthii strain: DSM20697 for biotransformation. The drug concentrations were measured before and after a 12-h incubation by liquid-chromatography-coupled mass spectrometry (LC–MS)
# [16] = The drug is tested on Escherichia coli strain: BW25113 for biotransformation. The drug concentrations were measured before and after a 12-h incubation by liquid-chromatography-coupled mass spectrometry (LC–MS); conditions: 2 µM
# [17] = The drug is tested on Ruminococcus torques strain: ATCC27756 for biotransformation. The drug concentrations were measured before and after a 12-h incubation by liquid-chromatography-coupled mass spectrometry (LC–MS); type: ADME; parameters: dose 2 uM, timepoint 0 vs 12 hours; conditions: 2 µM
# [18] = The drug is tested on Clostridium sp. strain: fecal isolate for biotransformation. The drug concentrations were measured before and after a 12-h incubation by liquid-chromatography-coupled mass spectrometry (LC–MS); conditions: 2 µM
# [19] = The drug is tested on Bacteroides ovatus strain: ATCC8483 for biotransformation. The drug concentrations were measured before and after a 12-h incubation by liquid-chromatography-coupled mass spectrometry (LC–MS); conditions: 2 µM
# [20] = The drug is tested on Enterococcus faecalis strain: V583 for biotransformation. The drug concentrations were measured before and after a 12-h incubation by liquid-chromatography-coupled mass spectrometry (LC–MS); conditions: 2 µM
SMILES,Bacterial Biotransformation [1],Bacterial Biotransformation [2],Bacterial Biotransformation [3],Bacterial Biotransformation [4],Bacterial Biotransformation [5],Bacterial Biotransformation [6],Bacterial Biotransformation [7],Bacterial Biotransformation [8],Bacterial Biotransformation [9],Bacterial Biotransformation [10],Bacterial Biotransformation [11],Bacterial Biotransformation [12],Bacterial Biotransformation [13],Bacterial Biotransformation [14],Bacterial Biotransformation [15],Bacterial Biotransformation [16],Bacterial Biotransformation [17],Bacterial Biotransformation [18],Bacterial Biotransformation [19],Bacterial Biotransformation [20]
CC(C)C[C@H]1C(=O)N2CCC[C@H]2[C@]2(O)O[C@](NC(=O)[C@@H]3C=C4c5cccc6[nH]c(Br)c(c56)C[C@H]4N(C)C3)(C(C)C)C(=O)N12.CS(=O)(=O)O [BROMOCRIPTINE MESYLATE],Compound metabolized,Compound metabolized,Compound metabolized,Compound metabolized,Compound metabolized,Compound metabolized,Compound metabolized,Compound metabolized,Compound metabolized,Compound metabolized,Compound metabolized,Compound metabolized,Compound metabolized,Compound metabolized,Compound metabolized,Compound metabolized,Compound metabolized,Compound metabolized,Compound metabolized,–
CC(C(=O)O)c1ccc2c(c1)Cc1cccnc1O2 (stereo not drawn) [PRANOPROFEN],Compound NOT metabolized,Compound NOT metabolized,Compound metabolized,Compound metabolized,Compound metabolized,Compound metabolized,Compound metabolized,Compound NOT metabolized,Compound NOT metabolized,Compound NOT metabolized,Compound metabolized,Compound NOT metabolized,Compound metabolized,–,Compound metabolized,Compound metabolized,–,Compound metabolized,Compound metabolized,Compound NOT metabolized
Cc1nc2n(c(=O)c1CCN1CCC(c3noc4cc(F)ccc34)CC1)CCCC2O (stereo not drawn) [PALIPERIDONE],Compound metabolized,Compound metabolized,Compound metabolized,Compound metabolized,Compound metabolized,Compound metabolized,Compound metabolized,Compound NOT metabolized,Compound metabolized,Compound metabolized,Compound metabolized,Compound metabolized,Compound NOT metabolized,Compound NOT metabolized,Compound metabolized,Compound metabolized,Compound metabolized,Compound metabolized,Compound metabolized,–
CCOC(=O)C1=C(C)NC(C)=C(C(=O)OC)C1c1cccc([N+](=O)[O-])c1 (stereo not drawn) [NITRENDIPINE],Compound metabolized,Compound metabolized,Compound metabolized,Compound metabolized,Compound metabolized,Compound metabolized,Compound metabolized,Compound metabolized,Compound metabolized,Compound NOT metabolized,Compound metabolized,Compound metabolized,Compound metabolized,Compound metabolized,Compound metabolized,Compound metabolized,Compound metabolized,Compound metabolized,–,Compound metabolized
COc1ccc2[nH]c([S+]([O-])Cc3ncc(C)c(OC)c3C)nc2n1 (stereo not drawn) [TENATOPRAZOLE],Compound metabolized,Compound metabolized,Compound metabolized,Compound metabolized,Compound metabolized,Compound metabolized,Compound metabolized,Compound metabolized,Compound metabolized,Compound metabolized,–,Compound metabolized,Compound metabolized,Compound metabolized,Compound metabolized,Compound metabolized,Compound metabolized,Compound metabolized,Compound metabolized,Compound metabolized
CC[C@H](C)C(=O)O[C@H]1C[C@@H](C)C=C2C=C[C@H](C)[C@H](CC[C@@H]3C[C@@H](O)CC(=O)O3)[C@H]21 [LOVASTATIN],Compound NOT metabolized,Compound NOT metabolized,Compound NOT metabolized,Compound metabolized,Compound NOT metabolized,Compound metabolized,Compound metabolized,Compound NOT metabolized,Compound metabolized,Compound metabolized,Compound metabolized,Compound metabolized,–,Compound metabolized,Compound NOT metabolized,Compound NOT metabolized,Compound NOT metabolized,Compound metabolized,Compound NOT metabolized,Compound metabolized
